According to paper PMC2746281 (PLoS ONE, 2009):

Columns and labels:
VEGFR1 = VEGFR1 (Homo sapiens, UniProt P17948); assay: Recombinant kinase ELISA assay, VEGFR1; type: biochemical; conditions: recombinant human enzyme; ELISA-based assay, poly(Glu,Tyr 4:1) substrate
Method: (§1) Full details for the generation of recombinant human KIT intracellular domain and other protein kinases (including Lyn, platelet derived growth factor receptor β, epidermal growth factor receptor, fibroblast growth factor receptor 1, Src, HCK, PYK, FES, Btk, Bmx, c-Ret, c-Fms, Syk, and c-Met) are provided in the Supplemental Methods (see Supporting Information; Methods S1). Experiments on ABL1, Akt1, protein kinase C-α, insulin-like growth factor receptor 1, and Pim1 were carried out by Proqinase (Germany). All other recombinant protein kinases were performed in-house using an enzyme-linked immunoassay; experimental details are provided in the Supplemental Methods (see Supporting Information; Methods S1).
(§2) A 96-well microtitre plate (Immulon 2HB; ThermoLifeScience, Finland) was coated overnight with 0.25 mg/ml poly(Glu,Tyr 4:1), rinsed twice with 250 µl of washing buffer (10 mM phosphate-buffered saline [pH 7.4] and 0.05% Tween 20) and dried for 2 hours at room temperature. […] Reactions were initiated upon introduction of the enzyme and terminated with the addition of one reaction volume (50 μl) of 100 mM EDTA per 5 M urea mix. […] The final reaction product was quantified by spectrophotometry at 450 nm.

FMA3 cells = assay: Mastocytoma cell line proliferation (WST-1), FMA3; type: cell-based, murine; conditions: Mus musculus, 48 h; 2 days; KIT juxtamembrane mutation
Method: (§3) (B) western blotting analysis of HMC-1α155 tyrosine phosphorylation. […] (D) Western blotting analysis of BMMC tyrosine phosphorylation. Cell proliferation was assessed by WST-1 colorimetric assay. […] MW = molecular weight.

Syk = molecular target: T1, Syk (Homo sapiens, UniProt P43405); assay: Recombinant kinase ELISA assay, Syk; type: biochemical; conditions: recombinant human enzyme; ELISA-based assay, poly(Glu,Tyr 4:1) substrate
T1 construct: Syk (2–612; BC011399); 6xHN (N); made in house; host or cells: baculovirus, Sf9 insect cells
Method: as §1
(§4) The sequences encoding PDGF receptor β (residues 554–1106; GenBank accession no. BC032224), Lyn B (2–583; accession no. BC059394), fibroblast growth factor receptor 1 (572–959; accession no. BC018128), Src (2–536; accession no. BC011566), Btk (2–659; accession no. BC109079), Bmx (2–675; accession no. BC016652), c-Ret (713–1114; accession no. BC004257), c-Fms (538–972; BC047531), Syk (2–612; BC011399), Hck (2-526; accession no. BC014435), Fes (2-822; accession no. BC035357), PYK2 (2-1006; accession no. BC042599) and c-Met (949–1398; accession no. lifeseq3489592) were amplified by PCR from IMAGE cDNA clones purchased from Openbiosystems. […]

[1] = tested on: primary BMMCs from mice expressing wild-type KIT; assay: SCF-stimulated proliferation and KIT tyrosine phosphorylation in primary BMMCs; type: cell-based; conditions: Mus musculus, BMMC, primary murine BMMCs, read-out: IC50, SCF-stimulated cell proliferation and tyrosine phosphorylation of KIT in BMMCs
Method: as §3

Fes = molecular target: T2, Fes (Homo sapiens, UniProt P07332); assay: Recombinant kinase ELISA assay, Fes; type: biochemical; conditions: recombinant human enzyme; ELISA-based assay, poly(Glu,Tyr 4:1) substrate
T2 construct: Fes (2-822; BC035357); 6xHN (N); made in house; host or cells: baculovirus, Sf9 insect cells
Method: as §1, §4

KIT D^814V (murine) = molecular target: T3, KIT D^814V (murine) (Mus musculus, UniProt P05532, D818V); assay: Ba/F3 cell proliferation (WST-1), KIT D814V; conditions: Ba/F3 cells expressing the enzyme, read-out: Cell-based assay IC50, KIT D^814V (murine)
T3 construct: expressed in transfected cells; host or cells: Ba/F3

TrkB = TrkB (Homo sapiens, UniProt Q16620); conditions: read-out: Cell-based assay IC50, TrkB; Ba/F3 cells expressing the enzyme; cell proliferation, WST-1
c-Met = molecular target: T4, c-Met (Homo sapiens, UniProt P08581); assay: Recombinant kinase ELISA assay, c-Met; type: biochemical; conditions: recombinant human enzyme; ELISA-based assay, poly(Glu,Tyr 4:1) substrate
T4 construct: c-Met (949–1398); 6xHN (N); made in house; host or cells: baculovirus, Sf9 insect cells
Method: as §1, §4

Focal adhesion kinase = Focal adhesion kinase (Homo sapiens, UniProt Q05397); assay: Recombinant kinase ELISA assay, focal adhesion kinase; type: biochemical; conditions: recombinant human enzyme; ELISA-based assay, poly(Glu,Tyr 4:1) substrate
Method: as §1

Alk = molecular target: T5, Alk (Homo sapiens, UniProt Q9UM73); assay: Ba/F3 cell proliferation (WST-1), Alk; conditions: Ba/F3 cells expressing the enzyme, read-out: Cell-based assay IC50, Alk
T5 construct: expressed in transfected cells; host or cells: Ba/F3

VEGFR2 = VEGFR2 (Homo sapiens, UniProt P35968); assay: Recombinant kinase ELISA assay, VEGFR2; type: biochemical; conditions: recombinant human enzyme; ELISA-based assay, poly(Glu,Tyr 4:1) substrate
Method: as §1

Src = molecular target: T6, Src (Homo sapiens, UniProt P12931); assay: Recombinant kinase ELISA assay, Src; type: biochemical; conditions: recombinant human enzyme; ELISA-based assay, poly(Glu,Tyr 4:1) substrate
T6 construct: Src (2–536; BC011566); 6xHN (N); made in house; host or cells: baculovirus, Sf9 insect cells
Method: as §1, §2

Lyn B = molecular target: T7, Lyn B (Homo sapiens, UniProt P07948); assay: Recombinant kinase ELISA assay, Lyn B; type: biochemical; conditions: recombinant human enzyme; ELISA-based assay, poly(Glu,Tyr 4:1) substrate
T7 construct: Lyn B (2–583; BC059394); 6xHN (N); made in house; host or cells: baculovirus, Sf9 insect cells
Method: as §1

[2] = molecular target: Fibroblast growth factor receptor 1 (Homo sapiens, UniProt P11362); assay: Recombinant kinase ELISA assay, FGFR1; type: biochemical; parameters: fibroblast growth factor receptor 1 (572–959; BC018128); 6xHN (N); made in house; host or cells: baculovirus, Sf9 insect cells; conditions: recombinant human enzyme; ELISA-based assay, poly(Glu,Tyr 4:1) substrate
Method: as §1, §4

T2 sequence (P07332 2-822): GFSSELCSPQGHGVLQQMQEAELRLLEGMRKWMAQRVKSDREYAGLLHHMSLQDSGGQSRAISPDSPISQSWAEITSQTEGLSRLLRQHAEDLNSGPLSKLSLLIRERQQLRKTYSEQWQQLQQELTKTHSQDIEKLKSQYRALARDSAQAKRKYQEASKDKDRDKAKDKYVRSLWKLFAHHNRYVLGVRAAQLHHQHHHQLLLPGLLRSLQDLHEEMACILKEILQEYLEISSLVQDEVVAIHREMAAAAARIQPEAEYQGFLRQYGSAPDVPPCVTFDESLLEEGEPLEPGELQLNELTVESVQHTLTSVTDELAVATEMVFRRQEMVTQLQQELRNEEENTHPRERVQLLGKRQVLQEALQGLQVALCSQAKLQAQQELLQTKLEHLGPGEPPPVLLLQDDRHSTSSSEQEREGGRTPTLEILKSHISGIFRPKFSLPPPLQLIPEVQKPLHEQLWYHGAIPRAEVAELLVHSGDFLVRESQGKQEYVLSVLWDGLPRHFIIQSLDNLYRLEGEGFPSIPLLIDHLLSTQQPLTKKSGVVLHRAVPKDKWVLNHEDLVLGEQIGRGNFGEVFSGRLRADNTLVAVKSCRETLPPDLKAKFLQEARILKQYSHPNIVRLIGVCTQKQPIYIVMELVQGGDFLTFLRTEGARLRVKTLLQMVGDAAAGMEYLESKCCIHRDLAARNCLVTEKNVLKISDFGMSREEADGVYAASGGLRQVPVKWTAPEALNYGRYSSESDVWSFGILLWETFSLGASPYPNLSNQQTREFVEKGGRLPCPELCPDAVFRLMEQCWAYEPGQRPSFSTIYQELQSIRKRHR
Chain of Focal adhesion kinase (Q05397 whole entry): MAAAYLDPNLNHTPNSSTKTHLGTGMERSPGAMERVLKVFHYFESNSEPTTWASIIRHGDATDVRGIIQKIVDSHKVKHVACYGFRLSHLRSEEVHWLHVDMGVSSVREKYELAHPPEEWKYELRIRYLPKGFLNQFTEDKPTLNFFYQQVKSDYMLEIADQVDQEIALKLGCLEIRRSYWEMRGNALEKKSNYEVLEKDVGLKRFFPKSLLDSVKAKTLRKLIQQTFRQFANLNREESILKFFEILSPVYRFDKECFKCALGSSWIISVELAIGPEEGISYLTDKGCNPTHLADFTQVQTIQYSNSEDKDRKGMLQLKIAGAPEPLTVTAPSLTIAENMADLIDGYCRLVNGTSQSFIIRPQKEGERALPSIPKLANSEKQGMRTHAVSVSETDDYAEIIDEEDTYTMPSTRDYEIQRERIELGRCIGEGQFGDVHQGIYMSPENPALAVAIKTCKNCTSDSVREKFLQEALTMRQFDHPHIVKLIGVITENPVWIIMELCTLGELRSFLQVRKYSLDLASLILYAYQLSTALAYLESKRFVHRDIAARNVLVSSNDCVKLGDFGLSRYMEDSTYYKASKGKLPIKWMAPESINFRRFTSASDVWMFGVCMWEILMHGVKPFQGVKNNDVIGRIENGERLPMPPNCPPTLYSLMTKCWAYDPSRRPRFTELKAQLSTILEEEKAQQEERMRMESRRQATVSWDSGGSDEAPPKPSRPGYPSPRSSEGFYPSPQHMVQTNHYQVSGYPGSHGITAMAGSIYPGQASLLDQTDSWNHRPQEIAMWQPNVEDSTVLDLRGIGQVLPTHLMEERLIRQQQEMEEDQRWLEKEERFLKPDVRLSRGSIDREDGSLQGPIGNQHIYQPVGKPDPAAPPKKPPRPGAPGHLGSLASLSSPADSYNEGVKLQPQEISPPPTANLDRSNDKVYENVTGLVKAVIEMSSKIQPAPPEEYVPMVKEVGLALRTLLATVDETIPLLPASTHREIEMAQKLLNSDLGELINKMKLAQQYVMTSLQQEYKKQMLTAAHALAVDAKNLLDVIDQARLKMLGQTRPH
T7 sequence (P07948 2-491 isoform P07948-2 limits assumed): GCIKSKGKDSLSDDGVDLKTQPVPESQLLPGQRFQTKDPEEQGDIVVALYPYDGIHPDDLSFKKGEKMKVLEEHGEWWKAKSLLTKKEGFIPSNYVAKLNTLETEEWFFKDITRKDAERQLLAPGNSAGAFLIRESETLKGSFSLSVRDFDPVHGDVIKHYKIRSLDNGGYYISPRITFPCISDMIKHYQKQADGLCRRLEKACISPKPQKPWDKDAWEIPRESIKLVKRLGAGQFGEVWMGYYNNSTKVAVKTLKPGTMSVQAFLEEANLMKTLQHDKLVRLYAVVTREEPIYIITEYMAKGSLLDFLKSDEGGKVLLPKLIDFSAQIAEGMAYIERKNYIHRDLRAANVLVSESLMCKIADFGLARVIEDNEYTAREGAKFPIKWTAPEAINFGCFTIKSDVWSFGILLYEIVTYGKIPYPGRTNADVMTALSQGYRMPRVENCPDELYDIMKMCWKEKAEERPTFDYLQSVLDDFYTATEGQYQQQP
T3 sequence (P05532 25-975 isoform P05532-2 D814V limits assumed): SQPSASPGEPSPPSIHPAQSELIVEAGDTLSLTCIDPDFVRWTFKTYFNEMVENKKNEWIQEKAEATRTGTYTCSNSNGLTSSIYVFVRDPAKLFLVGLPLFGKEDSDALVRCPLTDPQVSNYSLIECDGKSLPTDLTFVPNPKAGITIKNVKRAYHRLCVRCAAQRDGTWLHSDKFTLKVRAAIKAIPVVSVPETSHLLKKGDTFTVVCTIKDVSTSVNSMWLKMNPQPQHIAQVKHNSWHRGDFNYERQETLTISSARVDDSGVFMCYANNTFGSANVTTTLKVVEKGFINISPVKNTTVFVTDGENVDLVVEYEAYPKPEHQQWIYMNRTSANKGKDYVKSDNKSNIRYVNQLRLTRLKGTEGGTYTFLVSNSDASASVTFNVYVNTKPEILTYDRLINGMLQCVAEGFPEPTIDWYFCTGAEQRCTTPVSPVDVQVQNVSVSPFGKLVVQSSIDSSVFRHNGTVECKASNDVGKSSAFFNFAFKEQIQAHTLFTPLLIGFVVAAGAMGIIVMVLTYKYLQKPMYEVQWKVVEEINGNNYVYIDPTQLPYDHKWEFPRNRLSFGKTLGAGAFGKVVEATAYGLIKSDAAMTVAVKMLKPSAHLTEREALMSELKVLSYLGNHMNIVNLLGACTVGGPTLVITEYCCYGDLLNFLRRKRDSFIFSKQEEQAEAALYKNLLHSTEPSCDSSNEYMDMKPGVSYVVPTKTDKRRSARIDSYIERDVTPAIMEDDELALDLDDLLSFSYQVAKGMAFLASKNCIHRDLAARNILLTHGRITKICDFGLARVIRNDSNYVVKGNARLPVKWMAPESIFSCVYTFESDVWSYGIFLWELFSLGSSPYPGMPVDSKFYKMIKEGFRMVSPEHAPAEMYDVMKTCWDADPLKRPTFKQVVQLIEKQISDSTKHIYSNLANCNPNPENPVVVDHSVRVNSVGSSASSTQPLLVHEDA
Chain of Fibroblast growth factor receptor 1 (P11362 434-822 limits assumed): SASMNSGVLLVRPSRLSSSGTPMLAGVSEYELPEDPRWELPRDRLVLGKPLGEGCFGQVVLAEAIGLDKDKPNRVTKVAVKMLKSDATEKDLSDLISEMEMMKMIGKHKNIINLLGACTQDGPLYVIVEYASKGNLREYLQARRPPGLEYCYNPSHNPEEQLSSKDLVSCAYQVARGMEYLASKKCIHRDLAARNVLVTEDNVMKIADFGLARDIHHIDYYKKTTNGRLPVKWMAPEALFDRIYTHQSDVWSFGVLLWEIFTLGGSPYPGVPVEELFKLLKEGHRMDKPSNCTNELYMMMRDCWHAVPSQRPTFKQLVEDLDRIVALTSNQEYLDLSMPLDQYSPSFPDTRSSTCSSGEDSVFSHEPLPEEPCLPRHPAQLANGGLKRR
Chain of VEGFR2 (P35968 20-1356): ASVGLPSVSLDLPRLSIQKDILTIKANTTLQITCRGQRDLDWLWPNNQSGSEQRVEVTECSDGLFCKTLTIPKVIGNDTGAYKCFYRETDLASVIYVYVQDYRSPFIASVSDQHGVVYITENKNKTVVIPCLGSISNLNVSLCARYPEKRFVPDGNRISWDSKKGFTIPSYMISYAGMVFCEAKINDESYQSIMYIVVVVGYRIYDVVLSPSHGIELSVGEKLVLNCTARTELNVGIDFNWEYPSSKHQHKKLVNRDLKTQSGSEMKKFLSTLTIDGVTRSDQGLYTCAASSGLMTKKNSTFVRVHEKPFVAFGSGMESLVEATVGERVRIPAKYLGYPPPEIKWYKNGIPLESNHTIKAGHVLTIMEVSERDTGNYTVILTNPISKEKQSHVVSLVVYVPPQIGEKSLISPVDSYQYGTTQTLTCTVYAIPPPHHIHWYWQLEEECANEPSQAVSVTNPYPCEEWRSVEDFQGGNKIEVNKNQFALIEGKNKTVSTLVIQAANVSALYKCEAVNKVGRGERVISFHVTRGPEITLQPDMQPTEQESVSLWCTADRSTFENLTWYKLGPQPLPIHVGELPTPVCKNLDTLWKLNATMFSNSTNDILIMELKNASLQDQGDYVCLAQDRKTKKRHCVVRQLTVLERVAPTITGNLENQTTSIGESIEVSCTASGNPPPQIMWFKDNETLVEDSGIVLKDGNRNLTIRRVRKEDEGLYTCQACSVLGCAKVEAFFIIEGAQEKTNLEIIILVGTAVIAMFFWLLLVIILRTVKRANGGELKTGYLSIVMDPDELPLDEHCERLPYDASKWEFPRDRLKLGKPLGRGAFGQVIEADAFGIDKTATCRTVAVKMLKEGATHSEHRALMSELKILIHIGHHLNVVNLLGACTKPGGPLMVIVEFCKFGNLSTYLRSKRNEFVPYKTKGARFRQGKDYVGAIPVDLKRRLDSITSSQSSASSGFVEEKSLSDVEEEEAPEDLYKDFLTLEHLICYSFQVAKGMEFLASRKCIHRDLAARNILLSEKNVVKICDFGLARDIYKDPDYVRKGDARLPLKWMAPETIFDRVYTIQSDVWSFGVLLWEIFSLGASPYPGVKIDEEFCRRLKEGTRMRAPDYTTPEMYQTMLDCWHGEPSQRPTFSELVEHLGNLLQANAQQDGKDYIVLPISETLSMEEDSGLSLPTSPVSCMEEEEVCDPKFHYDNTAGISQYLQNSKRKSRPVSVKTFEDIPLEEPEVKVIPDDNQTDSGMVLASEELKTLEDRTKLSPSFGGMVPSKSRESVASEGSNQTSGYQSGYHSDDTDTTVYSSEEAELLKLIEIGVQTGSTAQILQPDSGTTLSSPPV

## CS(=O)(=O)O.CS(=O)(=O)O.Cc1ccc(NC(=O)c2ccc(CN3CCN(C)CC3)cc2)cc1Nc1nc(-c2cccnc2)cs1 [masitinib, 4-(4-methylpiperazin-1-ylmethyl)-N-[4-methyl-3-(4-pyridin-3ylthiazol-2-ylamino)phenyl]benzamide-mesylate methane sulfonic acid salt]
VEGFR1
  IC50: > 10 µM
FMA3 cells
  IC50: ~0.03 µM
Syk
  IC50: > 10 µM
[1]
  IC50: 0.2 ± 0.05 µM
Fes
  IC50: > 10 µM
KIT D^814V (murine)
  IC50: 3 ± 0.1 µM
TrkB
  IC50: 7 ± 1.9 µM
c-Met
  IC50: > 10 µM
Focal adhesion kinase
  IC50: > 10 µM
Alk
  IC50: 9 ± 0.18 µM
VEGFR2
  IC50: > 10 µM
Src
  IC50: 1.87 ± 0.31 µM
Lyn B
  IC50: 0.51 ± 0.13 µM
[2]
  IC50: > 10 µM
